“And” between values parts separate entries of the source, which are not always exact repeats. Equal values may be shown once. “Also recorded” adds a separate entry of the source. Read-outs that look alike come from different tables or passages of the source.

Data set [1] deals with OSA patients. The settings on record: for NREM (atomoxetine) and REM (oxybutynin) specific AHI / effect on ventilation during sleep / oxygen saturation / oxygen levels compared to placebo: each drug administered alone; for OSA severity (apnea hypopnea index, AHI): nine moderate-to-severe OSA patients, REM and NREM sleep.
Source text: In a preliminary investigation, nine patients equipped with a pneumotachograph attached to an oronasal mask to measure ventilation and an esophageal catheter to estimate the arousal threshold, performed a sleep study on each of these 4 conditions: placebo, atomoxetine alone, oxybutynin alone and ato-oxy.
Data set [2] has as its system subjects with and without OSA. The settings on record: cited from earlier work.
For data set [3], the system named is patients with OSA. The conditions noted are these: drug taken alone, cited from earlier work.
The subject of data set [4] is OSA patients. The settings on record: cited from earlier work.
In data set [5] the test system is OSA subjects. Description: Tiagabine in 14 OSA subjects. It counts as in vivo, human. The text has this: As described herein, drugs that increase sleep depth (and slow wave sleep (SWS) in particular) such as tiagabine or gabapentin could help the resolution of OSA. […] The pharmacological increase in slow wave sleep (SWS) could be an ideal mechanism for raising the arousal threshold to treat OSA, particularly since SWS seems to be a “protective state” against OSA. […] The reason for improvement likely relates to changes in the non-anatomical factors that contribute to OSA during SWS such as reduced arousability, thereby enabling a higher activation of upper airway dilator muscles. […] Thus, as described herein, drugs such as gabapentin that cause 20-60% increase of SWS^20,21, are ideal candidates for the treatment of OSA in association with atomoxetine.

In data set [6] the test system is OSA patients. Description: Atomoxetine plus pimavanserin sleep study in 5 OSA patients (Example 4). It counts as in vivo, human. The conditions noted are these: inferred from combination effect and atomoxetine-alone reduction. Here is the method: We administered the recently-approved selective 5-HT2A inverse agonist pimavanserin 34 mg to block the EEG arousal response to CO2 in association with atomoxetine 80 mg and measured the effect of this combination on OSA severity, arousal threshold and collapsibility in 5 patients. These doses were chosen as they are the usual effective doses for attention-deficit disorder and delusion-hallucinations in patients with Parkinson's disease, respectively, based on prescribing information. Patients were also instrumented with an oronasal mask, and in 4/5 patients, esophageal catheter and genioglossus intramuscular electrodes. […] The effect on the arousal threshold is noteworthy, because pimavenserin was administered together with atomoxetine, a wake-promoting drug that, as described above, caused a reduction in arousal threshold by ˜18% compared to placebo in OSA patients in a previous trial. This means that pimavanserin could actually increase the respiratory arousal threshold by ˜50%.

The subject of data set [7] is patients with mild OSA. The settings on record: 15 patients with mild OSA; cited from earlier work.
For data set [8], the system named is OSA patients; normal controls. The settings on record: cited from earlier work.
The subject of data set [9] is OSA patients. The settings on record: zopiclone 7.5 mg, 1 night, n=12; cited from earlier work.
Data set [10] concerns OSA patients. The settings on record: zopiclone n=14 vs placebo n=16; 30 days; non-significant; cited from earlier work.
The test system of data set [11] is OSA patients. The settings on record: cited from earlier work. The source holds these as a separate data set.
The conditions of data set [12]: in vivo; cited from earlier work.
Setting [13] is: protriptyline 20 mg, 4 weeks, 5 obese men with severe OSA (Brownell).
[14] abbreviates: zopiclone 7.5 mg, 21 healthy individuals and OSA patients.
The mark [15] stands for this setting: seven patients with a low arousal threshold (Eckert).

For the compound `CCN(CC)CC#CCOC(=O)C(O)(c1ccccc1)C1CCCCC1` (stereo not drawn) [oxybutynin], in [1], the “NREM (atomoxetine) and REM (oxybutynin) specific AHI” value is given as “did not respectively improve”; the “effect on ventilation during sleep” value is given as “minor effect on ventilation”; the “oxygen saturation / oxygen levels compared to placebo” value is recorded as “did not improve oxygen levels”; the “OSA severity (apnea hypopnea index, AHI)” value is recorded as “did not systematically reduce OSA severity”.
In the case of `Cc1ccc(-c2nc3ccc(C)cn3c2CC(=O)N(C)C)cc1` [zolpidem], the “increase in arousal threshold compared to placebo” value in data set [2] (21 subjects with and without OSA, zolpidem 10 mg) was ~30% and 25%. Moreover, in data set [2] (21 subjects, p=0.03), the “increase in median genioglossus muscle responsiveness compared to placebo” value is recorded as 3 fold. For the same compound, the “genioglossus response to pharyngeal negative pressure compared to placebo” value in data set [2] (zolpidem 10 mg, 21 individuals) is given as “increased”.
Turning to `CNCCCC1c2ccccc2C=Cc2ccccc21` [protriptyline], in [3] (listed as Protriptyline), the “success in reducing OSA severity / the AHI” value is given as “without success”. Moreover, in [3], the “success in reducing OSA severity / the AHI” value is reported as “modest success”. Further, the “reduction in AHI from baseline” value in [4] (open label 4-week crossover trial, 9 patients (Hanzel)) was 42%. For the same compound, in data set [4] (setting [13]), the “AHI during NREM sleep” value is listed as “no change”; the “oxygen saturation and daytime sleepiness” value was “improvements”. Further, the “NREM AHI as a group” value in data set [4] (protriptyline 20 mg, 14 days, 10 moderate-to-severe OSA patients (Whyte)) is “did not change”.
As to `Cc1ccsc1C(=CCCN1CCC[C@@H](C(=O)O)C1)c1sccc1C` [tiagabine], in data set [5], the “AHI or oxygen saturation during sleep” value is given as “without worsening” and the “increase in EEG slow wave activity” value worked out at 16%.
Take `CC(C)COc1ccc(CNC(=O)N(Cc2ccc(F)cc2)C2CCN(C)CC2)cc1` [pimavanserin]: the “increase of respiratory arousal threshold ascribed to pimavanserin” value in [6] was ~50%.
As for `CNCC[C@@H](Oc1ccccc1C)c1ccccc1` [atomoxetine], in data set [7], the AHI result is “did not improve” and the daytime sleepiness entry was “significantly improve”. The “success in reducing OSA severity / the AHI” value in data set [3] is recorded as “modest success; also recorded: without success”. For the same compound, in data set [1] (analysis of ventilatory parameters during all night), the “share of the improvement in ventilation during sleep accounted for” value is listed as “at least 70%”. In data set [1], the “NREM (atomoxetine) and REM (oxybutynin) specific AHI” value is reported as “did not respectively improve”; the “effect on ventilation during sleep” value was “responsible for most of the ventilatory improvement”; the “oxygen saturation / oxygen levels compared to placebo” value is on record as “improved oxygen saturation”; the “OSA severity (apnea hypopnea index, AHI)” value is reported as “did not improve OSA severity”. Besides, the “reduction in arousal threshold vs placebo” value in [1] (nine OSA patients, atomoxetine p=0.03, combination p>0.7) stood at 18%. Further, in [1] (listed as Atomoxetine), the “OSA severity (apnea hypopnea index, AHI)” value was “did not systematically reduce OSA severity”.
As for `CNCCCN1c2ccccc2CCc2ccccc21` [desipramine], the “airway collapsibility compared to placebo” value in [8] (1 night, 14 OSA patients) is listed as “less collapsible airway”. The “effect on OSA severity as a group” value in data set [8] (1 night, 14 patients) is on record as “not significant”. In data set [8] (normal controls), the “genioglossus activity during sleep” value is recorded as “increased genioglossus activity” and the “upper airway collapsibility during sleep” value is recorded as “reduced upper airway collapsibility”. For the same compound, the “success in reducing OSA severity / the AHI” value in data set [3] is recorded as “modest success; also recorded: without success”.
For `CN1CCN(C(=O)OC2c3nccnc3C(=O)N2c2ccc(Cl)cn2)CC1` (stereo not drawn) [zopiclone], in [2] (setting [14]), the AHI vs placebo entry was “did not change” and the “arousal threshold vs placebo” value is given as “significantly increased”. For the same compound, in [9], the “AHI compared to placebo” value was “did not significantly change” and the “increase in arousal threshold” value is on record as 20%. Besides, in data set [10], the “change in AHI from baseline” value was −25% and the “change in AHI from placebo” value is given as −15%.
As for `O=c1n(CCCN2CCN(c3cccc(Cl)c3)CC2)nc2ccccn12` [trazodone], in [11] (setting [15]), the “AHI compared to placebo” value is on record as “did not affect” and the “improvement of arousal threshold” value was 30%. In addition, the “arousal threshold in response to hypercapnia” value in data set [11] (trazodone 100 mg before bedtime, eight OSA patients (Heinzer)) was “increased”. Moreover, in [11] (trazodone 100 mg, 15 unselected OSA patients (Smales)), the “reduction of AHI” value is 26%.
As for `NCC1(CC(=O)O)CCCCC1` [gabapentin], in data set [12], the “increase of SWS (slow wave sleep)” value was 20-60%.
